According to publication PMC9656436, “Synthesis and Biological Evaluation of New Isoxazolyl Steroids as Anti-Prostate Cancer Agents” (International Journal of Molecular Sciences, 2022):
Read-outs that look alike come from different tables or passages of the source.

Key:
CYP17A1 [1] = biological target: T1, CYP17A1 (Homo sapiens, UniProt P05093); test: reconstituted […],20-lyase assay, HPLC, […] compound; type: biochemical; conditions: read-out: 17,20-Lyase Activity / Inhibition, %
T1 construct: recombinant human CYP17A1, reconstituted system; with NADPH-cytochrome P450 reductase (rat), cytochrome b5 (human)
T1 sequence (P00388 2-678 partner, one chain of several): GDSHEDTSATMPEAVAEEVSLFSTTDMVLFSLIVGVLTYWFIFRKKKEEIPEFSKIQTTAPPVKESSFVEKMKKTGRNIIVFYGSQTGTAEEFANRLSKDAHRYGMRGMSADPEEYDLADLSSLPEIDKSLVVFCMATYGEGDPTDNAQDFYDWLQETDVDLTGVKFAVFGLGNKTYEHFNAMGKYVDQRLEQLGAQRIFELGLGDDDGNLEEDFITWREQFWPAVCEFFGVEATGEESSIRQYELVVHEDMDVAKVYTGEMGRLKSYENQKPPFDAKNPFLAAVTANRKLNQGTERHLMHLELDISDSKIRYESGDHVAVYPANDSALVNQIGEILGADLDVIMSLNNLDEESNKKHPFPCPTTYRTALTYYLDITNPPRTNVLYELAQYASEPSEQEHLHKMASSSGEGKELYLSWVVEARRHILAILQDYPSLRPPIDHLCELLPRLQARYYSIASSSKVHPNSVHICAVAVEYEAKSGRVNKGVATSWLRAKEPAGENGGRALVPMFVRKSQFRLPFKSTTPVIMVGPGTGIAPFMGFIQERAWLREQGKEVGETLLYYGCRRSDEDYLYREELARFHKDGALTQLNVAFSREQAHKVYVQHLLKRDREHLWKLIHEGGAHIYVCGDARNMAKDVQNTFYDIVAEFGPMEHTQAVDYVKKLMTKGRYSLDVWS
T1 sequence (P00167 2-134 partner, one chain of several): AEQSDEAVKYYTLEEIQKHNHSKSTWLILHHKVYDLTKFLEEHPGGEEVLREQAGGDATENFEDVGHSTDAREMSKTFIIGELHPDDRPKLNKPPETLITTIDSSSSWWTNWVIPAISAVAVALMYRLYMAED

DU145 = test: cells; design: resazurin (Alamar blue) viability assay, resorufin fluorescence, GI50 from dose-response; conditions: Homo sapiens, DU-145, 72 h; read-out: Viability after 72 h (GI50) DU145
Procedure: (§1) Cells were seeded into the 96-well tissue culture plates and, on the other day, compounds were added in different concentrations in duplicate for 72 h. Upon treatment, the resazurin solution (Sigma Aldrich, St. Louis, MI, USA) was added for 4 h, and then the fluorescence of resorufin was measured at 544 nm/590 nm (excitation/emission) using a Fluoroskan Ascent microplate reader (Labsystems, Budapest, Hungary). The GI50 value was calculated from the dose–response curves that resulted from the measurements using GraphPad Prism 5. Antiproliferative properties of all novel steroids were tested in two AR-positive prostate cancer cell lines (LNCaP and LAPC-4) and one AR-negative cell line (DU145) using the Alamar-blue assay after 72 h treatment.

LAPC-4 = test: cells; design: resazurin (Alamar blue) viability assay, resorufin fluorescence, GI50 from dose-response; conditions: Homo sapiens, LAPC4, 72 h; read-out: Viability after 72 h (GI50) LAPC-4
Procedure: as §1

LNCaP = test: cells; design: resazurin (Alamar blue) viability assay, resorufin fluorescence, GI50 from dose-response; conditions: Homo sapiens, 72 h, read-out: Viability after 72 h (GI50) LNCaP
Procedure: as §1

AR = system: T2, AR; test: cells; design: species or system ARE14; ARE-driven firefly luciferase reporter; AR transcriptional activity normalised to 1 nM R1881; conditions: 24 h
T2 construct: endogenous AR in ARE14 reporter cells (22Rv1-derived)
Procedure: ARE14 cells were seeded (40,000 cells/well) into the Nunc™ MicroWell™ 96-well optical plate (Thermo Fisher Scientific, Waltham, MA, USA) on the second day. The cultivation medium was discarded, and the cells were washed with PBS. Analyzed compounds were dissolved in medium supplemented with CSS (agonist mode) or CSS with 1 nM R1881 (antagonist mode) and added to cells, including CSS and 1 nM R1881 controls. Upon 24 h of incubation, cells were washed with PBS and lysed for 10 min in a lysis buffer (10 mM Tris pH = 7.4, 2 mM DCTA, 1% nonidet P40, 2 mM DTT) at 37 °C. Next, a reaction buffer (20 mM tricine pH = 7.8, 1.07 mM MgSO4^.7H2O, 5 mM ATP, 9.4 mM luciferin) was added, and the luminescence was measured using a Tecan M200 Pro microplate reader ([…]). Based on the structural similarity of novel derivatives with galeterone and other published compounds (abiraterone, 3, and [6]), we tested the effect of our compounds towards the AR-transcriptional activity. Compounds were evaluated using an AR-dependent reporter cell line (ARE14) with a firefly-luciferase gene under the control of an androgen response element.

CYP17A1 [2] = biological target: T3, CYP17A1 (Homo sapiens, UniProt P05093); test: UV-Vis spectrophotometric titration (type I spectral response); type: binding
T3 construct: recombinant human CYP17A1, purified
T3 sequence (P05093 1-508): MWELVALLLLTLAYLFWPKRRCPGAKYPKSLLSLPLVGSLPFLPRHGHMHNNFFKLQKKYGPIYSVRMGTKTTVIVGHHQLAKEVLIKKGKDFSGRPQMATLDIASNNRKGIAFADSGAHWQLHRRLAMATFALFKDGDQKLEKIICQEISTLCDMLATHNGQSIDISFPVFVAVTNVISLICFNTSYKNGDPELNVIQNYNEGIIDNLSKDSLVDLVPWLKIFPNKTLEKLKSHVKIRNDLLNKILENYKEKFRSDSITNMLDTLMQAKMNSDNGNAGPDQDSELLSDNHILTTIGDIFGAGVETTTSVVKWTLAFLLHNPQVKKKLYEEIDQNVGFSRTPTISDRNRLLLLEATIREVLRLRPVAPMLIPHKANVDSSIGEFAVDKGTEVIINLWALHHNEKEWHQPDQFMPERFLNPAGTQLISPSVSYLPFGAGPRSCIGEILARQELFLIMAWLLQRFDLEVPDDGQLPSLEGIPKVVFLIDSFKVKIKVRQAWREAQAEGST

CYP17A1 [3] = biological target: T3, CYP17A1; test: UV-Vis spectrophotometric titration (type II spectral response); type: binding
[4] = compound alone, vs 1 nM R1881 = 100%, read-out: AGONIST MODE 2 μM
[5] = compound alone, vs 1 nM R1881 = 100%, read-out: AGONIST MODE 10 μM
[6] = compound alone, vs 1 nM R1881 = 100%, read-out: AGONIST MODE 50 μM
[7] = with 1 nM R1881, read-out: % of control remaining

Compound | inhibition at 50 µM (CYP17A1 [1]) [%] | GI50 (DU145) [µM] | GI50 (LAPC-4) [µM] | GI50 (LNCaP) [µM] | activity at 2 µM (AR; [4]) [%] | activity at 10 µM (AR; [5]) [%] | activity at 50 µM (AR; [6]) [%] | activity at 2 µM (AR; [7]) [%] | activity at 10 µM (AR; [7]) [%] | activity at 50 µM (AR; [7]) [%] | Kd (CYP17A1 [2]) [µM] | Kd (CYP17A1 [3]) [µM] | Kd (CYP17A1 [2]; read-out: Kd) [µM]
C[C@]12CC[C@H]3[C@@H](CC=C4C[C@@H](O)CC[C@@]43C)[C@@H]1CC[C@@H]2Cc1cc(-c2cccnc2)on1 [41f, (17R)-17-((5-(Pyridin-3-yl)isoxazol-3-yl)methyl)-androst-5-en-3β-ol] | 41.1 |  |  |  |  |  |  |  |  |  |  |  | 
C[C@]12CC[C@H](O)CC1=CC[C@@H]1[C@@H]2CC[C@]2(C)C(n3cnc4ccccc43)=CC[C@@H]12 [Gal, galeterone] |  | 47.6 ± 0.2 | 28.6 ± 0.6 | 46.8 ± 0.1 | 15.4 ± 0.4 | 10.8 ± 3.1 | 2.4 ± 1.1 | 65.2 ± 6.1 | 35.1 ± 3.3 | 3 ± 1.8 |  |  | 
CC(=O)[C@H]1CC[C@H]2[C@@H]3CCC4=CC(=O)CC[C@]4(C)[C@H]3CC[C@]12C [Progesterone] |  |  |  |  |  |  |  |  |  |  | < 1 |  | 
C[C@]12CC[C@H](O)CC1=CC[C@@H]1[C@@H]2CC[C@]2(C)C(c3cccnc3)=CC[C@@H]12 [abiraterone] |  |  |  |  |  |  |  |  |  |  |  | < 1 | 
C[C@]12CC[C@H]3[C@@H](CC=C4C[C@@H](O)CC[C@@]43C)[C@@H]1CC[C@@H]2CC(=O)/C(OC(=O)n1ccnc1)=C(\N)C1CC1 [compound 27, (E)-1-Amino-4-((17R)-3β-hydroxy-androst-5-en-17-yl)-1-cyclopropyl-3-oxobut-1-en-2-yl 1H-imidazole-1-carboxylate] |  | > 50 | > 50 | > 50 | 17.4 ± 0.5 | 20.9 ± 2.9 | 20.4 ± 4.2 | 89.7 ± 9.9 | 62 ± 14.8 | 63.5 ± 8 |  |  | 
C[C@]12CC[C@H]3[C@@H](CC=C4C[C@@H](O)CC[C@@]43C)[C@@H]1CC[C@@H]2Cc1cc(CO)no1 [compound 32, (17R)-17-((3-(Hydroxymethyl)isoxazol-5-yl)methyl)-androst-5-en-3β-ol] |  | > 50 | 18.9 ± 7.2 | 19.5 ± 0.1 | 14 ± 1.1 | 12.1 ± 2.7 | 14.6 ± 0.5 | 99.7 ± 17.4 | 87.8 ± 20.9 | 31.1 ± 13.3 |  |  | 13.4 ± 2.38
C[C@]12CC[C@H]3[C@@H](CC=C4C[C@@H](O)CC[C@@]43C)[C@@H]1CC[C@@H]2Cc1cc(CCl)no1 [compound 38, (17R)-17-((3-(Chloromethyl)isoxazol-5-yl)methyl)-androst-5-en-3β-ol] |  | > 50 | > 50 | > 50 | 14.6 ± 1 | 13 ± 0.4 | 7.3 ± 1.1 | 96.1 ± 11.2 | 92.6 ± 20.5 | 78.2 ± 24.9 |  |  | 
